Measurements from US5591741A, “Fungicidal spiroheterocyclic derivatives” (American Cyanamid Company, priority 1993, dated 1997).

Experiments:
[1] = system: Alternaria solani; assay: Activity against tomato early blight (AS); type: in vivo; conditions: Table VI; tomato seedlings, contact prophylactic foliar spray, 4 days
How it was run: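 Foliar contact prophylactic spray on tomato seedlings (cv Outdoor Girl, second true leaf expanded) in acetone/water 50:50 with 0.04% Tween 20; 24 h at 20° C, 40% R.H., then inoculation with 10^4 spores/ml A. solani conidia. Kept moist at 21° C; lesion cover rated 4 days post-inoculation against untreated or diluent-sprayed controls.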

[2] = system: Erysiphe graminis f.sp. hordei; assay: Activity against barley powdery mildew, direct therapeutic (EGT); type: in vivo; conditions: direct therapeutic foliar spray, 600 ppm, up to 7 days
How it was run: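 Barley seedlings (cv. Golden Promise, single-leaf stage) were dusted with mildew conidia one day before a therapeutic foliar spray of 600 ppm compound. Plants were kept at 18 °C and 40% humidity for up to 7 days, and sporulating leaf area was rated against untreated or diluent-sprayed controls.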

[3] = system: Plasmopara viticola; assay: Antisporulant activity against vine downy mildew (PVA); type: in vivo; conditions: vine leaves, antisporulant foliar spray, 600 ppm, 750 l/ha
How it was run: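 Cabernet Sauvignon vines (~8 cm) inoculated on lower leaf surfaces with 5×10^4 zoosporangia/ml, held 24 h at 21° C high humidity then 24 h glasshouse. Infected leaves sprayed underside with 600 ppm compound in 1:1 water/acetone, 0.04% Tween 20, 750 l/ha; 96 h glasshouse, 24 h humidity. Sporulating leaf area rated versus control.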

[4] = system: Erysiphe graminis f.sp. hordei; assay: Direct protectant activity against barley powdery mildew (EGP); type: in vivo; conditions: direct protectant foliar spray, 8 days
How it was run: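 Barley seedlings (cv Golden Promise, single-leaf stage) were foliar-sprayed, held 24 h at 18 °C/40% RH, then dusted with mildew conidia. After 8 days at 18 °C/40% RH, sporulating leaf area was scored as a rating against untreated or diluent-sprayed controls.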

[5] = system: Phytophthora infestans; type: in vivo; conditions: tomato, direct protectant foliar spray
[6] = system: Leptosphaeria nodorum; assay: Activity against wheat leafspot (LN); type: in vivo; conditions: direct therapeutic foliar spray, 600 ppm, 6-8 days
How it was run: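 Wheat cv Norman at single-leaf stage spray-inoculated with 1.5×10^6 conidia/ml, held 24 h at high humidity, then sprayed therapeutically with test compound at 600 ppm. Kept 6-8 days at 22° C, 70% humidity; lesion density per leaf rated against untreated or diluent-sprayed controls.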

[7] = system: Pyricularia oryzae; type: in vivo; conditions: rice seedlings, direct therapeutic foliar spray, 600 ppm, 4-5 days
[8] = system: Botrytis cinerea; assay: Direct protectant activity against broad bean grey mould (BCB); type: in vivo; conditions: direct protectant foliar spray, 600 ppm, 4 days
How it was run: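 Broad bean plants (cv The Sutton, two leaf pairs) sprayed on upper leaf surfaces at 600 ppm, then inoculated 24 h later with 10^6 conidia/ml. Kept 4 days at 22 °C, high humidity; disease control rated from % leaf area with lesions against untreated or diluent controls.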

[9] = system: Venturia inaequalis; assay: Activity against apple scab in-vitro (VII); type: cell-based; conditions: 10 ppm, 10 days, 20° C., mycelial growth
How it was run: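 Compound in acetone was tested at 10 ppm final in half-strength Potato Dextrose Broth inoculated with V. inaequalis mycelial fragments and spores at 5×10^4 propagules/ml. After 10 days at 20° C, mycelial growth was rated against untreated or diluent controls.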

[10] = system: Pseudocercosporella herpotrichoides; assay: Activity against wheat eyespot in-vitro (PHI); type: cell-based; conditions: 10 ppm, 10 days, 20° C., mycelial growth
How it was run: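 P. herpotrichoides mycelial fragments (5×10^4/ml) grown in half-strength PDB with compound at 10 ppm final, added from acetone. Incubated 10 days at 20 °C; mycelial growth rated against untreated or diluent controls.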

[11] = system: Rhizoctonia solani; assay: Activity against Rhizoctonia in-vitro (RSI); type: cell-based; conditions: 10 ppm, 10 days, 20° C., mycelial growth
How it was run: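 R. solani mycelial fragments (5×10^4/ml) in half-strength Potato Dextrose Broth with compound added from acetone to 10 ppm final. Mycelial growth assessed after 10 days at 20° C, rated against untreated or diluent control.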

| Compound | disease control rating AS [1] | disease control rating EGT [2] | disease control rating PVA [3] | disease control rating EGP [4] | disease control rating PIP [5] | disease control rating LN [6] | disease control rating PO [7] | disease control rating BCB [8] | disease control rating VII [9] | disease control rating PHI [10] | disease control rating RSI [11] |
| --- | --- | --- | --- | --- | --- | --- | --- | --- | --- | --- | --- |
| CC(C)(C)C1CCC2(CC1)CC(NCCC1CCCCC1)CO2 (centres unmarked) [Compound 100] | 0 (less than 50% disease control) | 2 (greater than 80% disease control) | 0 (less than 50% disease control) | 2 (greater than 80% disease control) | 2 (greater than 80% disease control) | 0 (less than 50% disease control) | 0 (less than 50% disease control) | 2 (greater than 80% disease control) | 2 (greater than 80% disease control) | 1 (about 50-80% disease control) | 1 (about 50-80% disease control) |
| CCCCCC(C)NC1COC2(CCC(C(C)(C)C)CC2)C1 (centres unmarked) [Compound 101] | 0 (less than 50% disease control) | 2 (greater than 80% disease control) | 0 (less than 50% disease control) | 2 (greater than 80% disease control) | 0 (less than 50% disease control) | 0 (less than 50% disease control) | 0 (less than 50% disease control) | 2 (greater than 80% disease control) | 2 (greater than 80% disease control) | 1 (about 50-80% disease control) | 0 (less than 50% disease control) |
| CCCCC(CC)NC1COC2(CCC(C(C)(C)C)CC2)C1 (centres unmarked) [Compound 102] | 0 (less than 50% disease control) | 2 (greater than 80% disease control) | 0 (less than 50% disease control) | 2 (greater than 80% disease control) | 0 (less than 50% disease control) | 0 (less than 50% disease control) | 0 (less than 50% disease control) | 1 (about 50-80% disease control) | 2 (greater than 80% disease control) | 0 (less than 50% disease control) | 0 (less than 50% disease control) |
| C=CCN(CC=C)C1COC2(CCC(C(C)(C)C)CC2)C1 (centres unmarked) [Compound 103] | 0 (less than 50% disease control) | 2 (greater than 80% disease control) | 0 (less than 50% disease control) | 2 (greater than 80% disease control) | 2 (greater than 80% disease control) | 0 (less than 50% disease control) | 0 (less than 50% disease control) | 2 (greater than 80% disease control) | 1 (about 50-80% disease control) | 0 (less than 50% disease control) | 0 (less than 50% disease control) |
| CC(C)(C)C1CCC2(CC1)CC(NC1CCCCCC1)CO2 (centres unmarked) [Compound 104] | 0 (less than 50% disease control) | 2 (greater than 80% disease control) | 0 (less than 50% disease control) | 2 (greater than 80% disease control) | 2 (greater than 80% disease control) | 1 (about 50-80% disease control) | 0 (less than 50% disease control) | 0 (less than 50% disease control) | 1 (about 50-80% disease control) | 0 (less than 50% disease control) | 0 (less than 50% disease control) |
| CCCCCCC(C)NC1COC2(CCC(C(C)(C)C)CC2)C1 (centres unmarked) [Compound 105] | 0 (less than 50% disease control) | 2 (greater than 80% disease control) | 0 (less than 50% disease control) | 2 (greater than 80% disease control) | 0 (less than 50% disease control) | 1 (about 50-80% disease control) | 0 (less than 50% disease control) | 1 (about 50-80% disease control) | 2 (greater than 80% disease control) | 2 (greater than 80% disease control) | 2 (greater than 80% disease control) |
| CC(C)(C)CC(C)(C)NC1COC2(CCC(C(C)(C)C)CC2)C1 (centres unmarked) [Compound 106] | 0 (less than 50% disease control) | 2 (greater than 80% disease control) | 0 (less than 50% disease control) | 2 (greater than 80% disease control) | 2 (greater than 80% disease control) | 0 (less than 50% disease control) | 0 (less than 50% disease control) | 0 (less than 50% disease control) | 1 (about 50-80% disease control) | 0 (less than 50% disease control) | 0 (less than 50% disease control) |
| CC(C)CCCC(C)NC1COC2(CCC(C(C)(C)C)CC2)C1 (centres unmarked) [Compound 107] | 0 (less than 50% disease control) | 2 (greater than 80% disease control) | 0 (less than 50% disease control) | 2 (greater than 80% disease control) | 2 (greater than 80% disease control) | 0 (less than 50% disease control) | 0 (less than 50% disease control) | 0 (less than 50% disease control) | 1 (about 50-80% disease control) | 1 (about 50-80% disease control) | 1 (about 50-80% disease control) |
| CC(C)(C)C1CCC2(CC1)CC(NCCC1=CCCCC1)CO2 (centres unmarked) [Compound 108] | 0 (less than 50% disease control) | 2 (greater than 80% disease control) | 0 (less than 50% disease control) | 2 (greater than 80% disease control) | 2 (greater than 80% disease control) | 0 (less than 50% disease control) | 0 (less than 50% disease control) | 2 (greater than 80% disease control) | 1 (about 50-80% disease control) | 1 (about 50-80% disease control) | 1 (about 50-80% disease control) |
| CC(C)(C)C1CCC(NC2COC3(CCC(C(C)(C)C)CC3)C2)CC1 (centres unmarked) [Compound 109] | 1 (about 50-80% disease control) | 2 (greater than 80% disease control) | 0 (less than 50% disease control) | 2 (greater than 80% disease control) | 2 (greater than 80% disease control) | 0 (less than 50% disease control) | 0 (less than 50% disease control) | 2 (greater than 80% disease control) | 2 (greater than 80% disease control) | 1 (about 50-80% disease control) | 1 (about 50-80% disease control) |
